As usually defined, the IC50 is the concentration at which inhibition is half-maximal.

The target in one assay is T1, p56^lck enzyme (Homo sapiens, UniProt P06239).
T1 construct: fused on or other part: N-terminal 6-His tag
Briefly: In vitro enzyme assay, Test (a): inhibition of p56lck phosphorylation of a tyrosine-containing polypeptide substrate (Elisa). The class given is biochemical. To be noted: inhibition of phosphorylation by p56lck. As to the method: (a) In vitro Enzyme Assay
The ability of test compounds to inhibit phosphorylation by the enzyme p56^lck of a tyrosine-containing polypeptide substrate was assessed using a conventional Elisa assay.
The following conventional procedure was used to obtain p56^lck enzyme. An EcoR1/Not1 fragment containing the entire coding sequence of p56^lck was generated by the technique of polymerase chain reaction (PCR) from Incyte clone No. 2829606. A 6-His tag was added to the sequence at the N-terminus during the PCR stage. Conventional sequence analysis identified a number of changes compared to the published sequence and these were found also to have been present in the original Incyte template. To achieve expression of the enzyme, the PCR fragment was inserted downstream of the polyhedrin promotor of pFASTBAC1 (Life Technologies Limited, Paisley, UK, Catalogue No. 10360-014). A recombinant Baculovirus was constructed using the Bac-to-Bac system (Life Technologies Limited). High Five insect cells (Invitrogen BV, PO Box 2312, 9704 CH Groningen, The Netherlands, Catalogue No. B855-02) were infected with the recombinant Baculovirus at a multiplicity of infection of 1 and incubated for 48 hours. The cells were harvested. […]

The subject of assay [1] is human peripheral blood mononuclear cells (T cell proliferation). Briefly: In vitro T cell proliferation assay, Test (b)(i): T cell receptor stimulation (anti-CD3 antibody). The class given is cell-based. The following applies: human PBMC, T cell receptor stimulation with anti-CD3 antibody, tritiated thymidine. Here is the method:
(§1) (b) In vitro T Cell Proliferation Assays
(§2) The ability of test compounds to inhibit T cell proliferation was assessed by using human peripheral blood mononuclear cells and stimulation of the T cells by way of the T cell receptor or other than by way of the T cell receptor.
Peripheral blood mononuclear cells (PBMC) were isolated from heparinised (10 units/ml heparin) human blood by density centrifugation (Lymphoprep™; Nycomed) spinning initially at 2000 rpm at ambient temperature for 20 minutes. Cells at the interphase were transferred to clean tubes, diluted 1:1 with RPMI 1640 medium (Gibco) and spun at 2000 rpm at ambient temperature for 10 minutes. The cell pellet was resuspended in RPMI 1640 medium and spun at 1400 rpm at ambient temperature for 10 minutes. […]
(§3) The extent of inhibition of T cell proliferation at a range of concentrations of each test compound was determined and an IC50 value was calculated. […]
Aliquots (50 μl) of the T cell receptor stimulatory anti-CD3 antibody (Pharmingen Catalogue No. 30100D; 40 ng/ml in assay medium) were added to each well and the cells were incubated for 24 hours at 37° C. in a humidified (5%CO2/95% air) incubator. […] The cells were harvested onto a filter mat and radioactivity was counted using a Wallac 1450 Microbeta Plus liquid scintillation counter.

Assay [2] has the same test system. In words: In vitro T cell proliferation assay, Test (b)(ii): non T cell receptor stimulation (PMA and Ionomycin). The class given is cell-based. The following applies: human PBMC, stimulation with PMA and Ionomycin, tritiated thymidine. As to the method:
as §1, §2
Peripheral blood mononuclear cells (PBMC) were isolated from heparinised (10 units/ml heparin) human blood by density centrifugation (Lymphoprep™; Nycomed) spinning initially at 2000 rpm at ambient temperature for 20 minutes. Cells at the interphase were transferred to clean tubes, diluted 1:1 with RPMI 1640 medium (Gibco) and spun at 2000 rpm at ambient temperature for 10 minutes. The cell pellet was resuspended in RPMI 1640 medium and spun at 1400 rpm at ambient temperature for 10 minutes. The cell pellet was resuspended in RPMI 1640 medium and spun at 900 rpm at ambient temperature for 10 minutes to remove platelets. […]
as §3
Aliquots (50 μl) of a mixture of the cell stimulants PMA (phorbol-12-myristate-13-acetate, Sigma Catalogue No. P8139; 40 ng/ml) and Ionomycin (Sigma Catalogue No. I0684; 1.2 μM) were added to each well and the cells were incubated and analysed as described in paragraph (b)(i).

T1 sequence (P06239 whole entry, the tested form may be a part): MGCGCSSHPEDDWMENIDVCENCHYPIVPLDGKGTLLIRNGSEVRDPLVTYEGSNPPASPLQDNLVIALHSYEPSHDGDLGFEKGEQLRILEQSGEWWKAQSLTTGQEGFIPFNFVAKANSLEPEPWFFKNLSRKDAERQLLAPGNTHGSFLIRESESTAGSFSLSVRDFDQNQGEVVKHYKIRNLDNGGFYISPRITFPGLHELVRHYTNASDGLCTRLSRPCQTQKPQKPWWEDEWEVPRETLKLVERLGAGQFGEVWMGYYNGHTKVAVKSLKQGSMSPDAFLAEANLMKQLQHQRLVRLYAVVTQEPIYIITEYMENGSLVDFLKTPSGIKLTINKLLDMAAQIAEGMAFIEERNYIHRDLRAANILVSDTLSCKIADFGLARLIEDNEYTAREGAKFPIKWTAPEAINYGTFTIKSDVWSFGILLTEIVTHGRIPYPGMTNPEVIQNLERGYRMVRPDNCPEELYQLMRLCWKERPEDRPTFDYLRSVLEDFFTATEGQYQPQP

For `COc1cc2nccc(Oc3ccc(Cl)cc3F)c2cc1C(=O)NCCCN1CCOCC1` [Example 1, 4-(4-chloro-2-fluorophenoxy)-7-methoxy-N-(3-morpholinopropyl)quinoline-6-carboxamide], the IC50 was about 30 nM at p56^lck enzyme, about 700 nM in assay [1] and about 18000 nM in assay [2].
